In patent US20220175798A1, “COMPOSITIONS COMPRISING OXYGENATED CHOLESTEROL SULFATE AND AT LEAST ONE OF POLYALKYLENE GLYCOL, CARBOXYMETHYL CELLULOSE AND POLYOXYLGLYCERIDE” (Durect Corporation, priority 2016, published 2022):
Where “and” joins values, the source holds several entries; their conditions need not be identical. Identical values can stand only once.

Test: Particle size analysis by Malvern Mastersizer 2000 (laser diffraction)
Format: physicochemical
Procedure: Two lots of 25HC3S sodium salt (Lot #A and Lot #B) were first passed through either 20 mesh or 35 mesh stainless steel sieves for particle size analysis. The particle sizes were further reduced by jet milling and analyzed again. All particle size analyses were determined using a Malvern Mastersizer 2000.
Fluid Energy Model 00 Jet-O-Mizer was used for all jet-milling. Malvern Mastersizer 2000 equipped with a Hydro 2000S dispersion cell was used for particle size analysis.
Approximately 60 mg of API was weighed into a 4 mL screw cap vial and 1 mL water, USP was added to the vial. […] Duplicate samples from each single sample preparation were analyzed.
Particle refractive index was assumed to be 1.53 (not measured by refractometer) and particle absorption index was 0.01. Dispersant (water, USP, presaturated with 25HC3 S) refractive index was 1.33. […] Throughout the measurement, the pump rate was 3000 rpm without sonication. The measurement integration time was 20,000 ms; the numbers of measurements for each sample were 5 with a 20 seconds delay in between two measurements. Analysis model: General purpose

[1] = 20 mesh sieve then Jet milling 1st pass (1st milling sample, feed rate not controlled), sodium salt
[2] = 20 mesh sieve then Jet milling 1st pass (2nd milling sample, feed rate 1 g/min)
[3] = 20 mesh sieve then Jet milling 2nd pass, sodium salt
[4] = 20 mesh sieve then Jet milling 3rd pass, sodium salt
[5] = Press through 20 mesh sieve with a stainless steel spatula, sodium salt
[6] = Press through 35 mesh sieve with a stainless steel spatula

C[C@H](CCCC(C)(C)O)[C@H]1CC[C@H]2[C@@H]3CC=C4C[C@@H](OS(=O)(=O)[O-])CC[C@]4(C)[C@H]3CC[C@]12C.[Na+] [Lot# B, 25HC3S sodium salt]
d (0.9) (20 mesh sieve then Jet milling 1st pass (1st milling sample, feed rate not controlled), listed as Lot #B, sodium salt): 22.07 μm and 16.17 μm
d (0.1) [1]: 2.148 μm and 1.822 μm
d (0.5) [1]: 6.858 μm and 5.126 μm
d (0.9) [1]: 29.028 μm and 22.070 μm
d (0.1) [2]: 1.253 μm
d (0.5) [2]: 3.172 μm
d (0.9) (20 mesh sieve then Jet milling 1st pass (2nd milling sample, feed rate 1 g/min), listed as Lot #B, sodium salt): 9.09 μm
d (0.9) (20 mesh sieve then Jet milling 1st pass (2nd milling sample, feed rate 1 g/min), sodium salt): 9.090 μm
d (0.1) [3]: 1.431 μm and 1.109 μm
d (0.5) [3]: 4.192 μm and 3.920 μm
d (0.9) [3]: 15.878 μm and 13.196^4 μm
d (0.1) [4]: 0.976 μm and 0.651 μm
d (0.5) [4]: 4.251 μm and 2.329 μm
d (0.9) [4]: 16.17 μm
d (0.1) [5]: 4.132 μm and 4.947 μm
d (0.5) [5]: 15.439 μm and 21.437 μm
d (0.9) [5]: 43.740 μm and 68.250 μm

C[C@H](CCCC(C)(C)O)[C@H]1CC[C@H]2[C@@H]3CC=C4C[C@@H](OS(=O)(=O)[O-])CC[C@]4(C)[C@H]3CC[C@]12C.[Na+] [Lot# A, 25HC3S sodium salt]
d (0.9) (20 mesh sieve then Jet milling 1st pass (1st milling sample, feed rate not controlled), listed as Lot #A, sodium salt): 5.180 μm
d (0.1) [1]: 0.705 μm
d (0.5) [1]: 2.091 μm
d (0.9) [1]: 5.180 μm
d (0.1) [3]: 0.384 μm and 0.496 μm
d (0.5) [3]: 1.214 μm and 1.320 μm
d (0.9) [3]: 4.026 μm and 4.035 μm
d (0.9) (20 mesh sieve then Jet milling 3rd pass, listed as Lot #A, sodium salt): 2.755 μm
d (0.1) [4]: 0.137 μm and 0.120 μm
d (0.5) [4]: 0.664 μm and 0.580 μm
d (0.9) [4]: 2.896 μm and 2.755 μm
d (0.1) [5]: 2.268 μm and 2.474 μm
d (0.5) [5]: 6.324 μm and 6.905 μm
d (0.9) [5]: 18.712 μm and 20.290 μm
d (0.1) [6]: 2.536 μm
d (0.5) [6]: 7.147 μm
d (0.9) [6]: 22.195 μm
